Data from patent publication US12084459B2, “2-(4-{1-[6-(4-isopropyl-phenyl)-imidazo[2,1-b][1,3,4]thiadiazol-2-yl]-piperidin-4-ylmethyl}-piperazin-1-yl)-ethanol and use thereof” (Urifer Ltd., priority 2020, dated 2024).

Test: toxicity in mice: body weight and observations after IP administration
Format: in vivo
Conditions: for body weight / body weight change (% wt/wt): female mice
Outline: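 Mice (female where stated) received the test compound intraperitoneally on day 1, dissolved in 20% hydroxypropylcyclodextrane at an administration volume of 10 ml/kg. Toxicity was assessed from body weight, body weight change (% wt/wt) and observations of the animals after administration.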

With CC(C)c1ccc(-c2cn3nc(N4CCC(CN5CCN(CCO)CC5)CC4)sc3n2)cc1 [Compound E266, 2-(4-{1-[6-(4-isopropyl-phenyl)-imidazo[2,1-b][1,3,4]thiadiazol-2-yl]-piperidin-4-ylmethyl}-piperazin-1-yl)-ethanol] as the molecule, how does the body weight (100 mg/kg IP, day 1) read?
Its body weight is 36.1 g.

What about the “body weight change (% wt/wt)” value (100 mg/kg IP, day 1) of the same molecule?
The value was 0%.

What about the body weight (100 mg/kg IP, day 2) of the same molecule?
Its body weight is 35.7 g.

What about the “body weight change (% wt/wt)” value (100 mg/kg IP, day 2) of the same molecule?
Its value is −1.1%.

And the body weight (100 mg/kg IP, day 3)?
The body weight was 36.1 g.

And the “body weight change (% wt/wt)” value (100 mg/kg IP, day 3)?
The value was 0.0%.

And the body weight (100 mg/kg IP, day 4)?
Its body weight is 35.2 g.

And the “body weight change (% wt/wt)” value (100 mg/kg IP, day 4)?
Its value is −2.5%.

And the body weight (100 mg/kg IP, day 5)?
Its body weight is 34 g.

What about the “body weight change (% wt/wt)” value (100 mg/kg IP, day 5) of the same molecule?
The value was −5.8%.

And the body weight (100 mg/kg IP, day 6)?
The body weight was 33.9 g.

And the “body weight change (% wt/wt)” value (100 mg/kg IP, day 6)?
Its value is −6.1%.

What about the body weight (100 mg/kg IP, day 7) of the same molecule?
Its body weight is 34 g.

And the “body weight change (% wt/wt)” value (100 mg/kg IP, day 7)?
Its value is −5.8%.

What about the body weight (100 mg/kg IP, day 8) of the same molecule?
The body weight was 33.6 g.

What about the “body weight change (% wt/wt)” value (100 mg/kg IP, day 8) of the same molecule?
Its value is −6.9%.

And the body weight (100 mg/kg IP, day 9)?
Its body weight is 32.4 g.

What about the “body weight change (% wt/wt)” value (100 mg/kg IP, day 9) of the same molecule?
The value was −10.2%.

What about the body weight (100 mg/kg IP, day 10) of the same molecule?
Its body weight is 33.5 g.

And the “body weight change (% wt/wt)” value (100 mg/kg IP, day 10)?
Its value is −7.2%.

And the body weight (100 mg/kg IP, day 11)?
Its body weight is 32.6 g.

What about the “body weight change (% wt/wt)” value (100 mg/kg IP, day 11) of the same molecule?
The value was −9.7%.

And the body weight (100 mg/kg IP, day 12)?
Its body weight is 33.4 g.

And the “body weight change (% wt/wt)” value (100 mg/kg IP, day 12)?
The value was −7.5%.

And the body weight (100 mg/kg IP, day 13)?
Its body weight is 32.8 g.

What about the “body weight change (% wt/wt)” value (100 mg/kg IP, day 13) of the same molecule?
The value was −9.1%.

What about the body weight (100 mg/kg IP, day 14) of the same molecule?
The body weight was 32.2 g.

And the “body weight change (% wt/wt)” value (100 mg/kg IP, day 14)?
The value was −10.8%.

What about the body weight (100 mg/kg IP, day 15) of the same molecule?
Its body weight is 32.4 g.

And the “body weight change (% wt/wt)” value (100 mg/kg IP, day 15)?
Its value is −10.2%.

And the body weight (200 mg/kg IP, day 1)?
Its body weight is 31.5 g.

What about the “body weight change (% wt/wt)” value (200 mg/kg IP, day 1) of the same molecule?
The value was 0%.

What about the body weight (200 mg/kg IP, day 2) of the same molecule?
The body weight was 30.5 g.

What about the “body weight change (% wt/wt)” value (200 mg/kg IP, day 2) of the same molecule?
The value was −3.2%.

What about the body weight (200 mg/kg IP, day 3) of the same molecule?
The body weight was 30.8 g.

And the “body weight change (% wt/wt)” value (200 mg/kg IP, day 3)?
Its value is −2.2%.

What about the body weight (200 mg/kg IP, day 4) of the same molecule?
Its body weight is 30.6 g.

And the “body weight change (% wt/wt)” value (200 mg/kg IP, day 4)?
The value was −2.9%.

And the body weight (200 mg/kg IP, day 5)?
Its body weight is 30.6 g.

What about the “body weight change (% wt/wt)” value (200 mg/kg IP, day 5) of the same molecule?
Its value is −2.9%.

What about the body weight (200 mg/kg IP, day 6) of the same molecule?
The body weight was 30.9 g.

What about the “body weight change (% wt/wt)” value (200 mg/kg IP, day 6) of the same molecule?
Its value is −1.9%.

What about the body weight (200 mg/kg IP, day 7) of the same molecule?
The body weight was 31 g.

And the “body weight change (% wt/wt)” value (200 mg/kg IP, day 7)?
Its value is −1.6%.

What about the body weight (200 mg/kg IP, day 8) of the same molecule?
The body weight was 31.1 g.

And the “body weight change (% wt/wt)” value (200 mg/kg IP, day 8)?
The value was −1.3%.

What about the body weight (200 mg/kg IP, day 9) of the same molecule?
The body weight was 30.6 g.

What about the “body weight change (% wt/wt)” value (200 mg/kg IP, day 9) of the same molecule?
The value was −2.9%.

What about the body weight (200 mg/kg IP, day 10) of the same molecule?
Its body weight is 31.2 g.

What about the “body weight change (% wt/wt)” value (200 mg/kg IP, day 10) of the same molecule?
Its value is −1.0%.

What about the body weight (200 mg/kg IP, day 11) of the same molecule?
Its body weight is 29.9 g.

And the “body weight change (% wt/wt)” value (200 mg/kg IP, day 11)?
Its value is −5.1%.

What about the body weight (200 mg/kg IP, day 12) of the same molecule?
The body weight was 30.6 g.

And the “body weight change (% wt/wt)” value (200 mg/kg IP, day 12)?
The value was −2.9%.

And the body weight (200 mg/kg IP, day 13)?
Its body weight is 30.6 g.

What about the “body weight change (% wt/wt)” value (200 mg/kg IP, day 13) of the same molecule?
The value was −2.9%.

And the body weight (200 mg/kg IP, day 14)?
The body weight was 30.8 g.

What about the “body weight change (% wt/wt)” value (200 mg/kg IP, day 14) of the same molecule?
Its value is −2.2%.

What about the body weight (200 mg/kg IP, day 15) of the same molecule?
The body weight was 30.5 g.

And the “body weight change (% wt/wt)” value (200 mg/kg IP, day 15)?
The value was −3.2%.

What about the body weight (400 mg/kg IP, day 1) of the same molecule?
Its body weight is 31.1 g.

What about the “body weight change (% wt/wt)” value (400 mg/kg IP, day 1) of the same molecule?
Its value is 0%.

And the body weight (400 mg/kg IP, day 2)?
The body weight was 30.5 g.

What about the “body weight change (% wt/wt)” value (400 mg/kg IP, day 2) of the same molecule?
Its value is −1.9%.

And the body weight (400 mg/kg IP, day 3)?
The body weight was 29.6 g.

And the “body weight change (% wt/wt)” value (400 mg/kg IP, day 3)?
The value was −4.8%.

What about the body weight (400 mg/kg IP, day 4) of the same molecule?
Its body weight is 28.6 g.

And the “body weight change (% wt/wt)” value (400 mg/kg IP, day 4)?
The value was −8.0%.

What about the body weight (400 mg/kg IP, day 5) of the same molecule?
The body weight was 28.4 g.

What about the “body weight change (% wt/wt)” value (400 mg/kg IP, day 5) of the same molecule?
Its value is −8.7%.

What about the body weight (400 mg/kg IP, day 6) of the same molecule?
The body weight was 28.5 g.

And the “body weight change (% wt/wt)” value (400 mg/kg IP, day 6)?
The value was −8.4%.

What about the body weight (400 mg/kg IP, day 7) of the same molecule?
Its body weight is 28.4 g.

And the “body weight change (% wt/wt)” value (400 mg/kg IP, day 7)?
Its value is −8.7%.

And the body weight (400 mg/kg IP, day 8)?
Its body weight is 28.7 g.

What about the “body weight change (% wt/wt)” value (400 mg/kg IP, day 8) of the same molecule?
Its value is −7.7%.

What about the body weight (400 mg/kg IP, day 9) of the same molecule?
Its body weight is 29 g.

And the “body weight change (% wt/wt)” value (400 mg/kg IP, day 9)?
The value was −6.8%.

What about the body weight (400 mg/kg IP, day 10) of the same molecule?
The body weight was 29.3 g.

What about the “body weight change (% wt/wt)” value (400 mg/kg IP, day 10) of the same molecule?
Its value is −5.8%.

What about the body weight (400 mg/kg IP, day 11) of the same molecule?
Its body weight is 29 g.

What about the “body weight change (% wt/wt)” value (400 mg/kg IP, day 11) of the same molecule?
Its value is −6.8%.

And the body weight (400 mg/kg IP, day 12)?
The body weight was 29.4 g.

And the “body weight change (% wt/wt)” value (400 mg/kg IP, day 12)?
The value was −5.5%.

What about the body weight (400 mg/kg IP, day 13) of the same molecule?
Its body weight is 29.8 g.

What about the “body weight change (% wt/wt)” value (400 mg/kg IP, day 13) of the same molecule?
Its value is −4.2%.

And the body weight (400 mg/kg IP, day 14)?
The body weight was 29.8 g.

And the “body weight change (% wt/wt)” value (400 mg/kg IP, day 14)?
Its value is 4.2%.

And the body weight (400 mg/kg IP, day 15)?
Its body weight is 29.2 g.

And the “body weight change (% wt/wt)” value (400 mg/kg IP, day 15)?
Its value is −6.1%.

And the toxicity (male and female mice, 100-400 mg/kg IP in 20% hydroxypropylcyclodextrane, 10 ml/kg)?
The toxicity was “not toxic”.
